Experiments:
Assay type in all cases: cell-based
CYP24 [1] = biological target: T1, CYP24 (Homo sapiens, UniProt Q07973); assay: CYP24 enzyme assay (stable cell line V79-CYP24 cells); settings: [3H-1β]-1α,25(OH)2D3 20 nM, 2 hours
T1 construct: expressed in transfected cells
T1 sequence (Q07973 36-514): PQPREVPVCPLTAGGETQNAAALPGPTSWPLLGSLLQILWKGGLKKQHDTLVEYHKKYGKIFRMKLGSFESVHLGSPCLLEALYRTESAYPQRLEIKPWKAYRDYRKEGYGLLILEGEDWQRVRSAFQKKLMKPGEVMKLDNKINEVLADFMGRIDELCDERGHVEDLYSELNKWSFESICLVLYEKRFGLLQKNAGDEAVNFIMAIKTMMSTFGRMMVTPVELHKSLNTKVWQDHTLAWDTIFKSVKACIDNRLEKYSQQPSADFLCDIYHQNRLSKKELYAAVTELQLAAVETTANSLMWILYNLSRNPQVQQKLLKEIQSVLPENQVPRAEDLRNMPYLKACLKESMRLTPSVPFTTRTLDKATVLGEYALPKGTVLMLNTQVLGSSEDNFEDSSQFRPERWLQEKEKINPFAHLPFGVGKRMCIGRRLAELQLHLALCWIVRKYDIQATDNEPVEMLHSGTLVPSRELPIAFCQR
Description: 1. Preparation of Cell Suspension • On the day of the assay, washed the monolayer of V79-CYP24 cells once with 1×PBS buffer and then trypsinize for 5 min at room temperature (approx. 22° C.). Added 1×PBS. Collected cells into tube, centrifuged cells (500×g, 5 min) and resuspended in DMEM+1% BSA media.
2. Cell Plating • Added 150 μl of cell suspension to appropriately labelled wells of a 48-well plate. Incubated plate for 30 minutes at 37° C. in a humidified atmosphere containing 5% CO2 for adherence of cells to wells.
3. Compound Addition • Added 25 μl of inhibitor (10^−6 to 10^−9 M) and then after 10 min added 25 μl of substrate [^3H-1β]-1α,25(OH)2D3 (20 nM) for 2 hours at 37° C. in a humidified atmosphere containing 5% CO2. Both inhibitor and substrate were prepared in DMEM with 1% BSA media in the absence and presence of 100 μM DPPD.
4. Lipid Extraction and Counting • Added 500 μL of methanol to stop the reaction. Transferred to tube. Added 250 μl of dichloromethane and vortexed. Added 250 μl of dichloromethane and 250 μl of saturated KCL and vortexed. Centrifuged at 4000 rpm for 5 min. Triplicate 100 μl aliquots of aqueous fraction were mixed with 600 μl of scintillation fluid and the radioactivity was measured using a scintillation counter. All values were normalized for background. (iii) Results.

SCC-25 cells = assay: [3H]-thymidine proliferation assay with SCC-25 cells; settings: together with calcitriol, three days, [3H]-thymidine 6 h
Description: 1. Preparation of Cell Suspension • When SCC-25 cells were 70-80% confluent, aspirated media. Washed the cells with 1×PBS. Trypsinized with trypsin-EDTA from the plate, collected cells from the tissue culture flask, centrifuged (500×g, 5 min) and resuspended in media.
2. Cell Plating. • Counted the cells and adjusted the cell density to 10,000/ml. Added 200 μl per well in a 96 well plate. Incubated plate for 24 h at 37° C. in a humidified atmosphere plus 5% CO2. Aspirated used media and replaced with 150 μl per well with media.
3. Compound Addition. • Added 25 μl of 1α,25(OH)2D3 (final concentration 10^−6M, 10^−7 M, 10^−8 M, M, 10^−10 M, 10^−11 M) into each designated well. Added 25 μl of substrate (final concentration 10^−7 M, 5×10^−8 M, 10^−8 M or 10^−9 M) into each designated well. Incubated plates for 3 days at 37° C. in a humidified atmosphere plus 5% CO2.
4. ^3H-Thymidine Incorporation. • Added ^3H-thymidine at 0.02 μCi per well and incubated at 37° C. in a humidified atmosphere plus 5% CO2 for 6 h.
5. Plate Harvesting. • Aspirated all media and washed cells with 1×PBS. Trypsinized cells for 30 min at 37° C. in a humidified atmosphere plus 5% CO2. Harvested cells onto a 96 well filter plate (Millipore) using a Tomtec Cell Harvestor, according to manufacturers instructions.
6. Scintillation Counting. • Added 25 μl of scintillation fluid per well. Counted the plate using a scintillation counter.

CYP24 [2] = biological target: T1, CYP24; assay: CYP24 enzyme assay (induced HPK1A-ras cells); settings: HPK1A-ras cells induced with 1,25(OH)2D3; [3H]-1,25(OH)2D3 substrate, 2 hour
Description: 1.25(OH)2D3 10^−5 M (Sigma, St. Louis, Mo.);
Preparation of 10^−5 M working solution is as follows:
Dissolve 1 mg of 1,25(OH)2D3 into 480 μl of isopropanol to make 5×10^−3 M stock solution. Store at −70° C. until needed. Aliquot 1 μl of 1.25(OH)2D3 5×10^−3 M stock solution to 499 μl of isopropanol to make 1.25(OH)2D3 10^−5 working solution. Store at −20° C. until needed. […] Induction of HPKIA-ras cells (The day before assay) • When the HPK1A-ras cells were 80-90% confluent, added 1 μL 10^−5 M 1.25(OH)2D3 to 1 mL medium in the plate (final concentration is 10^−8 M). • 2. Preparation of cell suspension • After 18 to 20 hours induction, removed the medium and washed the cell twice with PBS. Then tripsinized the cells from plate, centrifuged (2,000 rpm, 5 min) and suspended cells pellet in DMEM medium+1% BSA. • Counted the cells and adjusted cells density to 250,000/150 μL, added 150 μL cell suspension to each well in 48-well plate (including 3 wells as a no cell control, and 3 well cells without drug or inhibitor as controls). • 3. […] Kept the plate in 37° C. for 10 min. • 4. Preparation of substrate • For each ml required, added 972 μl of DMEM+1% BSA medium, 20 μl of 3H-1,25(OH)2D3, and 8 μl of 100 nM DPPD to a tube and vortexed. • 5. Incubation • Added 25 μL substrate to each well, incubated the plate at 37° C. for 2 hour. • Added 25 μL substrate to counting plate (2 well) as a total count. • 6. Lipid Extraction and Counting • Added 500 μL methanol to each well to stop the reaction, transferred them to tube. • Added 250 μL dichloromethane and vortex. • Added 250 μL dichloromethane and […] saturated KCI, and vortex. • Centrifuged at 4000 rpm for 5 min. • Transferred 100 μL of aqueous phase (upper phase) to counting plastic counting plate. Added 600 μL of scintillation fluid to each well. Counted the plate in scintillation counter. • 7. Calculation Enzyme Activity • CPM of cell control after subtraction of CPM of non-cell control (NCC) was as 100% enzyme activity.
• Dilution of test compounds • Stock 10^−3 M

Compound: C=C1/C(=C\C=C2/CCC[C@]3(C)[C@@H]([C@H](C)CCS(=N)(=O)c4ccccc4)CC[C@@H]23)C[C@@H](O)C[C@@H]1O (single isomer, unassigned) [I(c)]
- IC50 (CYP24 [1]): 20 nM
- inhibition of proliferation of SCC-25 cells (SCC-25 cells): act to inhibit the proliferation
- IC50 (CYP24 [2]): 33 nM

Reference: patent publication US7973024B2, “24-sulfoximine vitamin D3 compounds” (Cyctochroma Inc., priority 2002, dated 2011)
